Patent US7498353B2, “Heterocyclic anti-viral compounds comprising metabolizable moieties and their uses” (priority 2005, dated 2009)
pIC50: −log10 of the molar value.

tested on: HCV replicon in 5-2 Luc replicon-comprising cells; assay: HCV replicon assay, luciferase readout (HEPC_REPLICON-LUC); assay type: cell-based; details: Hepatitis C virus; 5-2 Luc replicon cells, 50% reduction in luciferase emission; read-out: HEPC_REPLICON-LUC Result Value (IC50)
From the text: In one embodiment, the inhibitory activity of the metabolically active agent of the prodrug can be confirmed in a replicon assay that assesses the ability of a test compound to block or inhibit HCV replication in replicon cells. One example of a suitable replicon assay is the liver cell-line Huh 7-based replicon assay described in Lohmann et al., 1999, Science 285:110-113. A specific example of this replicon assay which utilizes luciferase translation is provided in the Examples Section. In one embodiment of this assay, the amount of test prodrug that yields a 50% reduction in translation as compared to a control cell (IC50) may be determined.
The inhibitory activity of certain prodrugs of the invention, which may inhibit HCV translation or replication prior to metablism and/or are metabolized into active agents, was confirmed using an HCV replicon assay. The HCV replicon can include such features as the HCV 5′ untranslated region including the HCV IRES, the HCV 3′ untranslated region, selected HCV genes encoding HCV polypeptides, selectable markers, and a reporter gene such as luciferase, GFP, etc. In the assay, actively dividing 5-2 Luc replicon-comprising cells (obtained from Ralf Bartenschlager; see Lohmann et al., 1999, Science 285:110-113) were seeded at a density of between about 5,000 and 7,500 cells/well onto 96 well plates (about 90 μl of cells per well) and incubated at 37° C. and 5% CO2 for 24 hours. Then, the test prodrug (in a volume of about 10 μl) was added to the wells at various concentrations and the cells were incubated for an additional 24-48 hours before luciferase assay. The media was aspirated from each well and Bright-Glo (Promega, Madison, Wis.) luciferase assay reagents were added to each well according to the manufacturer's instructions. Briefly, the Bright-Glo reagent was diluted 1:1 with PBS and 100 μl of diluted reagent was added to each well. After 5 min of incubation at room temperature, luciferin emission was quantified with a luminometer. In this assay, the amount of test prodrug that yielded a 50% reduction in luciferase emission (IC50) was determined. This IC50 value may represent the antiviral activity of the prodrug itself, the activity of prodrug transformed into its active metabolized form, or a combination of the two.

`CC[C@H](C)[C@H](NC(=O)OC(C)(C)C)C(=O)NCCN(C(=O)C(Cl)Cl)c1cccc(-c2cc(-c3c(Cl)cccc3Cl)no2)c1` [Cpd. No. 29, tert-Butyl (2S,3S)-1-(2-(2,2-Dichloro-N-(3-(3-(2,6-dichlorophenyl)isoxazol-5-yl)phenyl)acetamido)ethylamino)-3-methyl-1-oxopentan-2-ylcarbamate] and `CC(C)[C@H](NC(=O)OC(C)(C)C)C(=O)N[C@H](CN(C(=O)C(Cl)Cl)c1cccc(-c2cc(-c3c(Cl)cccc3Cl)no2)c1)C(C)C` [Cpd. No. 27, tert-Butyl (S)-1-((S)-1-(2,2-Dichloro-N-(3-(3-(2,6-dichlorophenyl)isoxazol-5-yl)phenyl)acetamido)-3-methylbutan-2-ylamino)-3-methyl-1-oxobutan-2-ylcarbamate] cannot be ordered by pIC50: less than 4.70 for the first, less than 4.70 for the second.

`CC(C)OCN(C(=O)C(Cl)Cl)c1ccnc(-c2cc(-c3c(Cl)cccc3Cl)no2)c1` [Cpd. No. 9, 2,2-Dichloro-N-(2-(3-(2,6-dichlorophenyl)isoxazol-5-yl)pyridin-4-yl)-N-(isopropoxymethyl)acetamide] gave a pIC50 of less than 4.70.

tested on: HCV NS5A protein in 9-13 replicon cells; assay: Quantitative Western blot replicon assay (HEPC_REPLICON-ICWESTERN); assay type: cell-based, Hepatitis C virus (HCV); details: Hepatitis C virus, read-out: HEPC_REPLICON-ICWESTERN Result Value (IC50)
Procedure: Alternatively, the inhibitory activity of the metabolically active agents of the prodrugs can be confirmed using a quantitative Western immunoblot assay utilizing antibodies specific for HCV non-structural proteins, such as NS3, NS4A NS5A and NS5B. In one embodiment of this assay, replicon cells are treated with varying concentrations of test prodrug to determine the concentration of the metabolically active agent of the test prodrug that yields a 50% reduction in the amount of a non-structural protein produced as compared to a control sample (IC50). A single non-structural protein may be quantified or multiple non-structural proteins may be quantified. Antibodies suitable for carrying out such immunoblot assays are available commercially (e.g., from BIODESIGN International, Saco, Me.).
Certain prodrugs of the invention, which may inhibit HCV translation or replication prior to metablism and/or are metabolized into active agents, were also tested for their ability to inhibit HCV replication using a quantitative Western blot analysis with antibodies specific for the HCV NS5A or other non-structural proteins. Actively dividing 9-13 replicon cells were seeded into 6-well plates at a density of 1×10^5 cells/well in a volume of 2 ml/well and incubated at 37° C. and 5% CO2 for 24 hours. Various concentrations of test prodrugs (in a volume of 10 ul) were added to the wells and the cells incubated for another 48 hours. Protein samples were prepared from the cultured cells, resolved on a SDS-PAGE gel and transferred to a nitrocellulose membrane. The membrane was blocked with 5% non-fat milk in PBS for 1 hour at room temperature. Primary antibody (anti NS5A antibody; BIODESIGN International, Saco, Me.) incubation was performed for 1 hour at room temperature, after which the membrane was washed 3 times (for 15 min per time) with PBST (PBS plus 0.1% Tween 20). Horseradish peroxidase conjugated secondary antibody incubation was performed for 1 hour at room temperature and the membrane was washed 3 times (for 15 min per time) with PBST. The membrane was then soaked in substrate solution (Pierce) and exposed to a film or quantified using an imager. In this assay, the amount of test prodrug that is believed to be transformed into an active agent under the given conditions that yielded a 50% reduction in the amount of NS5A protein translated as compared to a control sample (IC50) was determined.

In the case of `CCOP(=O)(CCC(=O)CCN(C(=O)C(Cl)Cl)c1ccnc(-c2cc(-c3c(Cl)cccc3Cl)no2)c1)OCC` [Cpd. No. 11, Diethyl 5-(2,2-Dichloro-N-(2-(3-(2,6-dichlorophenyl)isoxazol-5-yl)pyridin-4-yl)acetamido)-3-oxopentylphosphonate], the pIC50 was greater than 6.00.

same assay, conditions: Hepatitis C virus; 9-13 replicon cells, 50% reduction in NS5A protein; read-out: HEPC_REPLICON-ICWESTERN Result Value (IC50)

Compared with `CC(C)(C)OC(=O)NCCN(C(=O)C(Cl)Cl)c1cccc(-c2cc(-c3c(Cl)cccc3Cl)no2)c1` [Cpd. No. 14, tert-Butyl 2-(2,2-Dichloro-N-(3-(3-(2,6-dichlorophenyl)isoxazol-5-yl)phenyl)acetamido)ethylcarbamate], `CC(C)[C@H](N)C(=O)NCCN(C(=O)C(Cl)Cl)c1cccc(-c2cc(-c3c(Cl)cccc3Cl)no2)c1` [Cpd. No. 37, (S)-2-Amino-N-(2-(2,2-dichloro-N-(3-(3-(2,6-dichlorophenyl)isoxazol-5-yl)phenyl)acetamido)ethyl)-3-methylbutanamide] is higher in pIC50: less than 4.70 for the first, 4.70 to 6.00 for the second.

`CC(C)[C@@H](CN(C(=O)C(Cl)Cl)c1cccc(-c2cc(-c3c(Cl)cccc3Cl)no2)c1)NC(=O)[C@H](CCC(=O)OC(C)(C)C)NC(=O)OC(C)(C)C` [Cpd. No. 26, (S)-tert-Butyl 4-(tert-Butoxycarbonylamino)-5-((S)-1-(2,2-dichloro-N-(3-(3-(2,6-dichlorophenyl)isoxazol-5-yl)phenyl)acetamido)-3-methylbutan-2-ylamino)-5-oxopentanoate] and `CC(C)[C@@H](CN(C(=O)C(Cl)Cl)c1cccc(-c2cc(-c3c(Cl)cccc3Cl)no2)c1)NC(=O)OC(C)(C)C` [Cpd. No. 21, (S)-tert-Butyl 1-(2,2-Dichloro-N-(3-(3-(2,6-dichlorophenyl)isoxazol-5-yl)phenyl)acetamido)-3-methylbutan-2-ylcarbamate] fall in the same range of pIC50: 4.70 to 6.00 for the first, 4.70 to 6.00 for the second.

Compared with `N[C@@H](C(=O)NCCN(C(=O)C(Cl)Cl)c1cccc(-c2cc(-c3c(Cl)cccc3Cl)no2)c1)c1ccccc1` [Cpd. No. 20, (R)-N-(2-(2-Amino-2-phenylacetamido)ethyl)-2,2-dichloro-N-(3-(3-(2,6-dichlorophenyl)isoxazol-5-yl)phenyl)acetamide], `CC(C)[C@@H](CN(C(=O)C(Cl)Cl)c1cccc(-c2cc(-c3c(Cl)cccc3Cl)no2)c1)NC(=O)[C@@H](N)c1ccccc1` [Cpd. No. 40, N-((S)-2-((S)-2-Amino-2-phenylacetamido)-3-methylbutyl)-2,2-dichloro-N-(3-(3-(2,6-dichlorophenyl)isoxazol-5-yl)phenyl)acetamide] is lower in pIC50: 4.70 to 6.00 for the first, less than 4.70 for the second.

`CNCC(=O)N[C@H](CN(C(=O)C(Cl)Cl)c1cccc(-c2cc(-c3c(Cl)cccc3Cl)no2)c1)C(C)C` [Cpd. No. 43, (S)-2,2-Dichloro-N-(3-(3-(2,6-dichlorophenyl)isoxazol-5-yl)phenyl)-N-(3-methyl-2-(2-(methylamino)acetamido)butyl)acetamide] and `CNCC(=O)NCCN(C(=O)C(Cl)Cl)c1cccc(-c2cc(-c3c(Cl)cccc3Cl)no2)c1` [Cpd. No. 36, 2,2-Dichloro-N-(3-(3-(2,6-dichlorophenyl)isoxazol-5-yl)phenyl)-N-(2-(2-(methylamino)acetamido)ethyl)acetamide] fall in the same range of pIC50: 4.70 to 6.00 for the first, 4.70 to 6.00 for the second.

First: N#CCCN(C(=O)C(Cl)Cl)c1cccc(-c2cc(-c3c(Cl)cccc3Cl)no2)c1 [Cpd. No. 13, 2,2-Dichloro-N-(2-cyanoethyl)-N-(3-(3-(2,6-dichlorophenyl)isoxazol-5-yl)phenyl)acetamide]
Second: CC(C)[C@H](N)CN(C(=O)C(Cl)Cl)c1cccc(-c2cc(-c3c(Cl)cccc3Cl)no2)c1 [Cpd. No. 39, (S)-N-(2-Amino-3-methylbutyl)-2,2-dichloro-N-(3-(3-(2,6-dichlorophenyl)isoxazol-5-yl)phenyl)acetamide]
The pIC50 of the first is lower: less than 4.70 for the first, 4.70 to 6.00 for the second.

Going from `N[C@@H](CCC(=O)O)C(=O)NCCN(C(=O)C(Cl)Cl)c1cccc(-c2cc(-c3c(Cl)cccc3Cl)no2)c1` [Cpd. No. 35, (S)-4-Amino-5-(2-(2,2-dichloro-N-(3-(3-(2,6-dichlorophenyl)isoxazol-5-yl)phenyl)acetamido)ethylamino)-5-oxopentanoic Acid] to `NC(CCC(=O)O)C(=O)CCN(C(=O)C(Cl)Cl)c1ccnc(-c2cc(-c3c(Cl)cccc3Cl)no2)c1` (stereo not shown) [Cpd. No. 4, 4-Amino-7-(2,2-dichloro-N-(2-(3-(2,6-dichlorophenyl)isoxazol-5-yl)pyridin-4-yl)acetamido)-5-oxoheptanoic Acid], the pIC50 rises from less than 4.70 to greater than 6.00. The second is the more potent here.

`CC(C)[C@@H](CN(C(=O)C(Cl)Cl)c1cccc(-c2cc(-c3c(Cl)cccc3Cl)no2)c1)NC(=O)C1CC(O)CN1C(=O)OC(C)(C)C` (stereo partly drawn) [Cpd. No. 24, tert-Butyl 2-((S)-1-(2,2-Dichloro-N-(3-(3-(2,6-dichlorophenyl)isoxazol-5-yl)phenyl)acetamido)-3-methylbutan-2-ylcarbamoyl)-4-hydroxypyrrolidine-1-carboxylate] and `CC(C)[C@@H](CN(C(=O)C(Cl)Cl)c1cccc(-c2cc(-c3c(Cl)cccc3Cl)no2)c1)NC(=O)CN(C)C(=O)OC(C)(C)C` [Cpd. No. 25, (S)-tert-Butyl 2-(1-(2,2-Dichloro-N-(3-(3-(2,6-dichlorophenyl)isoxazol-5-yl)phenyl)acetamido)-3-methylbutan-2-ylamino)-2-oxoethyl(methyl)carbamate] fall in the same range of pIC50: 4.70 to 6.00 for the first, 4.70 to 6.00 for the second.

`CC(C)[C@@H](CN(C(=O)C(Cl)Cl)c1cccc(-c2cc(-c3c(Cl)cccc3Cl)no2)c1)NC(=O)[C@H](NC(=O)OC(C)(C)C)c1ccccc1` [Cpd. No. 23, tert-Butyl (R)-2-((S)-1-(2,2-Dichloro-N-(3-(3-(2,6-dichlorophenyl)isoxazol-5-yl)phenyl)acetamido)-3-methylbutan-2-ylamino)-2-oxo-1-phenylethylcarbamate] was tested, and the pIC50 was 4.70 to 6.00.
